In ChEMBL document CHEMBL3885881, “DrugMatrix”:

Organism: Rattus norvegicus
Experiment: DrugMatrix - Regimen: Daily Repeat
Assay type: toxicity, organism-based, Sprague-Dawley
Design: regimen Daily Repeat, gender Male, age 6-8 weeks
Conditions: in vivo, po, route oral GAVAGE, […]; for ABSOLUTE BASOPHIL / ABSOLUTE EOSINOPHIL / ABSOLUTE LYMPHOCYTE / ABSOLUTE MONOCYTE / ABSOLUTE SEGMENTED NEUTROPHIL / BASOPHIL / EOSINOPHIL / ERYTHROCYTE COUNT / HEMATOCRIT / HEMOGLOBIN / LEUKOCYTE COUNT / LYMPHOCYTE / MEAN CORPUSCULAR HEMOGLOBIN / MEAN CORPUSCULAR HEMOGLOBIN CONCENTRATION / MEAN CORPUSCULAR VOLUME / MONOCYTE / NEUTROPHIL / NUCLEATED RED BLOOD CELLS / PLATELET COUNT: tissue Blood; for ALANINE AMINOTRANSFERASE / ALBUMIN / ALKALINE PHOSPHATASE / ASPARTATE AMINOTRANSFERASE / BLOOD UREA NITROGEN / CARBON DIOXIDE / CHLORIDE / CHOLESTEROL / CREATINE PHOSPHOKINASE / CREATININE / GLUCOSE / LACTATE DEHYDROGENASE / LIPASE / PHOSPHORUS / POTASSIUM / SODIUM / TOTAL BILIRUBIN / TOTAL PROTEIN / URIC ACID: tissue Plasma
[1] = 0 mg/kg, 72 h, dose level Control, time 3 day
[2] = 0 mg/kg, 120 h, dose level Control, time 5 day
[3] = 12 mg/kg, 72 h, dose level Low, time 3 day

Question: What does the source list for `COc1ncnc(NS(=O)(=O)c2ccc(N)cc2)c1OC` [SULFADOXINE]?
Answer: ABSOLUTE BASOPHIL [1]: 0 CELLS/uL; ABSOLUTE EOSINOPHIL [1]: 41.83 CELLS/uL; ABSOLUTE LYMPHOCYTE [1]: 8545.5 CELLS/uL; ABSOLUTE MONOCYTE [1]: 240 CELLS/uL; ABSOLUTE SEGMENTED NEUTROPHIL [1]: 906 CELLS/uL; BASOPHIL [1]: 0%; EOSINOPHIL [1]: 0.33%; ERYTHROCYTE COUNT [1]: 5.6 x10E6/uL; HEMATOCRIT [1]: 35.4%; HEMOGLOBIN [1]: 13.42 G/DL; LEUKOCYTE COUNT [1]: 9.73 x10E3/uL; LYMPHOCYTE [1]: 87.83%; MEAN CORPUSCULAR HEMOGLOBIN [1]: 23.98 pg; MEAN CORPUSCULAR HEMOGLOBIN CONCENTRATION [1]: 37.92 G/DL; MEAN CORPUSCULAR VOLUME [1]: 63.3 fL; MONOCYTE [1]: 2.5%; NEUTROPHIL [1]: 9.33%; NUCLEATED RED BLOOD CELLS [1]: 0 /100WBC; PLATELET COUNT [1]: 1032 x10E3/uL; ALANINE AMINOTRANSFERASE [1]: 72.83 u/L; ALBUMIN [1]: 4 G/DL; ALKALINE PHOSPHATASE [1]: 322.83 u/L; ASPARTATE AMINOTRANSFERASE [1]: 102.67 u/L; BLOOD UREA NITROGEN [1]: 12 mg/dL; CARBON DIOXIDE [1]: 34.33 mmol/L; CHLORIDE [1]: 97.67 MEQ/L; CHOLESTEROL [1]: 82.5 mg/dL; CREATINE PHOSPHOKINASE [1]: 410.33 u/L; CREATININE [1]: 0.18 mg/dL; GLUCOSE [1]: 164.5 mg/dL; LACTATE DEHYDROGENASE [1]: 119.5 u/L; LIPASE [1]: 11.83 u/L; PHOSPHORUS [1]: 9.52 mg/dL; POTASSIUM [1]: 5.56 MEQ/L; SODIUM [1]: 142.48 MEQ/L; TOTAL BILIRUBIN [1]: 0.18 mg/dL; TOTAL PROTEIN [1]: 5.77 G/DL; URIC ACID [1]: 0.48 mg/dL; ABSOLUTE BASOPHIL [2]: 0 CELLS/uL; ABSOLUTE EOSINOPHIL [2]: 0 CELLS/uL; ABSOLUTE LYMPHOCYTE [2]: 9065 CELLS/uL; ABSOLUTE MONOCYTE [2]: 341.33 CELLS/uL; ABSOLUTE SEGMENTED NEUTROPHIL [2]: 527 CELLS/uL; BASOPHIL [2]: 0%; EOSINOPHIL [2]: 0%; ERYTHROCYTE COUNT [2]: 5.25 x10E6/uL; HEMATOCRIT [2]: 34.08%; HEMOGLOBIN [2]: 13.5 G/DL; LEUKOCYTE COUNT [2]: 9.93 x10E3/uL; LYMPHOCYTE [2]: 91.17%; MEAN CORPUSCULAR HEMOGLOBIN [2]: 25.7 pg; MEAN CORPUSCULAR HEMOGLOBIN CONCENTRATION [2]: 39.62 G/DL; MEAN CORPUSCULAR VOLUME [2]: 64.93 fL; MONOCYTE [2]: 3.33%; NEUTROPHIL [2]: 5.5%; NUCLEATED RED BLOOD CELLS [2]: 0 /100WBC; PLATELET COUNT [2]: 1077.5 x10E3/uL; ALANINE AMINOTRANSFERASE [2]: 57.83 u/L; ALBUMIN [2]: 4.07 G/DL; ALKALINE PHOSPHATASE [2]: 319.17 u/L; ASPARTATE AMINOTRANSFERASE [2]: 83.33 u/L; BLOOD UREA NITROGEN [2]: 13.67 mg/dL; CARBON DIOXIDE [2]: 30.83 mmol/L; CHLORIDE [2]: 98.33 MEQ/L; CHOLESTEROL [2]: 64.83 mg/dL; CREATINE PHOSPHOKINASE [2]: 263.67 u/L; CREATININE [2]: 0.2 mg/dL; GLUCOSE [2]: 182.83 mg/dL; LACTATE DEHYDROGENASE [2]: 124 u/L; LIPASE [2]: 10.5 u/L; PHOSPHORUS [2]: 10 mg/dL; POTASSIUM [2]: 5.78 MEQ/L; SODIUM [2]: 142.48 MEQ/L; TOTAL BILIRUBIN [2]: 0.2 mg/dL; TOTAL PROTEIN [2]: 6 G/DL; URIC ACID [2]: 0.7 mg/dL; ABSOLUTE BASOPHIL [3]: 0 CELLS/uL; ABSOLUTE EOSINOPHIL [3]: 0 CELLS/uL; ABSOLUTE LYMPHOCYTE [3]: 9669.67 CELLS/uL; ABSOLUTE MONOCYTE [3]: 359.33 CELLS/uL; ABSOLUTE SEGMENTED NEUTROPHIL [3]: 937.67 CELLS/uL; BASOPHIL [3]: 0%; EOSINOPHIL [3]: 0%; ERYTHROCYTE COUNT [3]: 5.36 x10E6/uL; HEMATOCRIT [3]: 34.67%; HEMOGLOBIN [3]: 13.5 G/DL; LEUKOCYTE COUNT [3]: 10.97 x10E3/uL; LYMPHOCYTE [3]: 88.33%; MEAN CORPUSCULAR HEMOGLOBIN [3]: 25.23 pg; MEAN CORPUSCULAR HEMOGLOBIN CONCENTRATION [3]: 38.97 G/DL; MEAN CORPUSCULAR VOLUME [3]: 64.87 fL; MONOCYTE [3]: 2.67%; NEUTROPHIL [3]: 9%; NUCLEATED RED BLOOD CELLS [3]: 0 /100WBC; PLATELET COUNT [3]: 1062.67 x10E3/uL; ALANINE AMINOTRANSFERASE [3]: 67.67 u/L; ALBUMIN [3]: 4 G/DL; ALKALINE PHOSPHATASE [3]: 358.33 u/L; ASPARTATE AMINOTRANSFERASE [3]: 91.33 u/L; BLOOD UREA NITROGEN [3]: 12.67 mg/dL; CARBON DIOXIDE [3]: 32.33 mmol/L; CHLORIDE [3]: 98.33 MEQ/L; CHOLESTEROL [3]: 76.33 mg/dL; CREATINE PHOSPHOKINASE [3]: 340.67 u/L; CREATININE [3]: 0.29 mg/dL; GLUCOSE [3]: 154.67 mg/dL; LACTATE DEHYDROGENASE [3]: 166 u/L; LIPASE [3]: 10.67 u/L; PHOSPHORUS [3]: 10.17 mg/dL; POTASSIUM [3]: 5.55 MEQ/L; SODIUM [3]: 143.6 MEQ/L; TOTAL BILIRUBIN [3]: 0.23 mg/dL; TOTAL PROTEIN [3]: 5.77 G/DL; URIC ACID [3]: 0.33 mg/dL
